Assay results reported in ChEMBL document CHEMBL4414576, “Recent advancements in mechanistic studies and structure activity relationship of FoF1 ATP synthase inhibitor as antimicrobial agent” (Eur J Med Chem, 2019).

Tested on: Mycobacterium tuberculosis variant bovis
Assay: Antimicrobial activity against Mycobacterium bovis after 1 to 5 days by two-fold dilution
Format: functional, organism-based

For FC(F)(F)Oc1cccc(CNCCNC2C3CC4CC(C3)C2C4)c1 (stereo unspecified), the IC50 was 1.25 µM.
